Data: patent US20240287107A1, “PRODRUGS OF DIMETHYLTRYPTAMINE AND DERIVATIVES THEREOF” (priority 2022, published 2024)

Test: Stability in mouse plasma
Format: in vitro ADME
Description: Chemical and plasma stability of prodrug Compound 1 was evaluated and the results enumerated in Table 7 and Table 8, respectively. PK studies of prodrug Compound 1 and metabolite (VLS-02-23-10) in mice were also conducted and both plasma exposure and brain exposure were analyzed as shown in FIGS. 1A-1C and FIGS. 2A-2B, respectively.

| Structure (SMILES) | T½ |
| --- | --- |
| C[N+](C)(CCc1c[nH]c2ccccc12)COP(=O)([O-])O [Compound 1, ((2-(1H-indol-3-yl)ethyl)dimethyl-λ^4-azaneyl)methyl hydrogen phosphate] | 9.4723 h |
| CC(C)[N+](C)(CCOC(=O)C1c2ccccc2Oc2ccccc21)C(C)C [Propantheline] | 0.5682 h |
